Results from patent US20230117606A1, “COMPOSITIONS AND METHODS FOR THE TREATMENT OF INTRACELLULAR BACTERIAL INFECTIONS” (Endolytix Technology, Inc., priority 2020, published 2023).

These compounds were tested on M. abscessus (assay: Cell growth assay of M. abscessus with ABIα and antibiotic, Fractional Inhibitory Concentration (FIC) index). Details: antibiotic in combination with ABIα; FIG. 5.
Assay type: cell-based, Mycobacterium abscessus

Q: How did the “effect by FIC index on attenuation of M. abscessus growth” value (from here on “effect by FIC index on attenuation”) turn out when `C[C@@H](O)[C@H]1C(=O)N2C(C(=O)[O-])=C(SC3Cn4cnc[n+]4C3)[C@H](C)[C@H]12` (stereo partly drawn) [biapenem] was run?
A: Its value is “synergistic effects”.

Q: How did the “effect by FIC index on attenuation” value turn out when `CO[C@@]1(NC(=O)Cc2cccs2)C(=O)N2C(C(=O)O)=C(COC(N)=O)CS[C@@H]21` [cefoxitin] was run?
A: The value was “synergistic effects”.

Q: `NCC[C@H](O)C(=O)N[C@@H]1C[C@H](N)[C@@H](O[C@H]2O[C@H](CN)[C@@H](O)[C@H](O)[C@H]2O)[C@H](O)[C@H]1O[C@H]1O[C@H](CO)[C@@H](O)[C@H](N)[C@H]1O` [amikacin] was tested. Which “effect by FIC index on attenuation” value did it give?
A: Its value is “synergistic effects”.
